Results on two compounds are retold here after EPA's ToxValDB 9.5 (doi:10.2903/j.efsa.2018.5126).

≈ marks a conversion by molar mass, not a printed value.

One data set has as its system Anas platyrhynchos. The following applies: acute; oral; unspecified; mortality.
Another data set deals with Colinus virginianus. The following applies: chronic.
The subject of the next data set is Rattus norvegicus. The conditions noted are these: for LD50: acute, mortality.
The next data set relates to Apis mellifera. The conditions noted are these: acute, mortality.
A further data set deals with Bibionidae. The conditions noted are these: chronic/long-term; duration: 28 days.
A further data set concerns Landoltia sp. The conditions noted are these: chronic/long-term; duration: 7 days; frond number.
For a further data set, the system named is Navicula pelliculosa. The conditions noted are these: acute; duration: 72 hours; growth.
For a further data set, the system named is Neomysis kadiakensis. The conditions noted are these: chronic/long-term; duration: 28 days; reproduction.
The test system of a further data set is Oncorhynchus mykiss. The conditions noted are these: acute; duration: 96 hours; mortality.
Another data set relates to Oryctolagus sp. The following applies: reproduction developmental; body weight.
A further data set concerns Tagia sp. The following applies: chronic/long-term; duration: 56 days; growth.
The test system of the next data set is Aphidius rhopalosiphi. Description: LR50; higher = less toxic. The conditions noted are these: acute; mortality.

As usually defined, the NOAEL is the highest dose or exposure tested at which no adverse effect was seen. Turning to `N#Cc1c(O)c(Cl)c(Cl)c(C#N)c1Cl` [4-Hydroxy-2,5,6-trichloroisophthalonitrile], the LD50 stood at 158 mg/kg-day in the data set with Anas platyrhynchos and 242 mg/kg-day in the data set with Rattus norvegicus. In addition, the NOAEL was determined as 10.1 mg/kg-day in the data set on Colinus virginianus and 1.5 mg/kg-day in the data set on Rattus norvegicus (reproduction developmental, body weight).
What is called LC50 is the concentration that kills 50% of the test population. `N#Cc1c(Cl)c(Cl)c(Cl)c(C#N)c1Cl` [Chlorothalonil] yielded an LC50 (acute, duration: 96 hours, mortality) of 0.0107 µg/mL (≈ 0.0402 µM) and an LC50 in the data set on Oncorhynchus mykiss of 0.017 µg/mL (≈ 0.0639 µM). The NOEC (chronic) was determined as 0.003 mg/L; the NOEC in the data set with Bibionidae turned out to be 0.04 mg/L; the NOEC in the data set on Landoltia sp. was 0.187 mg/L; the NOEC in the data set on Navicula pelliculosa is 0.013 mg/L; the NOEC in the data set on Neomysis kadiakensis came to 0.0004 mg/L; the NOEC with Tagia sp. was found to be 0.75 mg/kg. Also, the LD50 in the data set with Anas platyrhynchos is above 2000 mg/kg-day; with Apis mellifera (dermal), above 40 µg/piece; with Apis mellifera (oral, unspecified) it was above 40 µg/piece; in the data set with Rattus norvegicus it was above 5000 mg/kg-day. The NOAEL in the data set with Oryctolagus sp. was below 5 mg/kg-day; in the data set with Rattus norvegicus (chronic, duration: 26 months, organ weight) it was 1.8 mg/kg-day; in the data set on Rattus norvegicus (reproduction developmental, histopathology: nonneoplastic), below 22.6 mg/kg-day; in the data set on Rattus norvegicus (subchronic, duration: 90 days, oral, histopathology: nonneoplastic), 1.5 mg/kg-day. In addition, the LR50 with Aphidius rhopalosiphi was above 262 g/ha.
